ChEMBL document CHEMBL4613326 (J Med Chem, 2020)
Active and inactive are the calls of the source. No cut-off for these calls is given here.

Experiments:
Autotaxin [1] = biological target: T1, Autotaxin (Homo sapiens, UniProt Q13822); assay: Inhibition of human ATX pre-incubated for 45 mins before fluorogenic substrate-3 addition and measured every minute for 30 mins by fluorescence based assay
Mus musculus [2] = assay: Protection against lung fibrosis in C57BL/6 mouse model of bleomycin sulfate-induced idiopathic pulmonary fibrosis assessed as induction of body weight recovery at 60 mg/kg, po dosed once daily for 31 days followed by bleomycin sulfate challenge on day 3; type: functional, organism-based
Mus musculus [3] = assay: Ex-vivo inhibition of ATX lysoPLD activity in lung homogenate isolated from C57BL/6 mouse model of bleomycin sulfate-induced idiopathic pulmonary fibrosis assessed absorbance for artificial substrate FS-3 cleavage at 60 mg/kg, po dosed once daily for 31 days followed by bleomycin sulfate challenge on day 3 by fluorescence based assay; type: functional
Mus musculus [4] = assay: Protection against lung fibrosis in C57BL/6 mouse model of bleomycin sulfate-induced idiopathic pulmonary fibrosis assessed as induction of improvement in lung texture at 60 mg/kg, po dosed once daily for 31 days followed by bleomycin sulfate challenge on day 3 by hematoxylin and eosin staining based assay; type: functional, organism-based
Mus musculus [5] = assay: Protection against lung fibrosis in C57BL/6 mouse model of bleomycin sulfate-induced idiopathic pulmonary fibrosis assessed as induction of body weight recovery at 20 mg/kg, po dosed once daily for 31 days followed by bleomycin sulfate challenge on day 3; type: functional, organism-based
Mus musculus [6] = assay: Ex-vivo inhibition of ATX lysoPLD activity in lung homogenate isolated from C57BL/6 mouse model of bleomycin sulfate-induced idiopathic pulmonary fibrosis assessed […] for artificial substrate FS-3 cleavage at 20 mg/kg, po dosed once daily for 31 days followed by bleomycin sulfate challenge on day 3 by fluorescence based assay; type: functional
Mus musculus [7] = assay: Ex-vivo inhibition of ATX lysoPLD activity in lung homogenate isolated from C57BL/6 mouse model of bleomycin sulfate-induced idiopathic pulmonary fibrosis assessed absorbance for artificial substrate FS-3 cleavage at 20 to 60 mg/kg, po dosed once daily for 31 days followed by bleomycin sulfate challenge on day 3 by fluorescence based assay; type: functional, organism-based
Mus musculus [8] = assay: Protection against lung fibrosis in C57BL/6 mouse model of bleomycin sulfate-induced idiopathic pulmonary fibrosis assessed as induction of improvement in histopathological changes by measuring modified Ashcroft score level at 20 mg/kg, po dosed once daily for 31 days followed by bleomycin sulfate challenge on day 3 by hematoxylin and eosin staining based assay (reference value: 6.28); type: functional
Mus musculus [9] = assay: Protection against lung fibrosis in C57BL/6 mouse model of bleomycin sulfate-induced idiopathic pulmonary fibrosis assessed as induction of improvement in lung texture at 20 mg/kg, po dosed once daily for 31 days followed by bleomycin sulfate challenge on day 3 by hematoxylin and eosin staining based assay; type: functional, organism-based
Mus musculus [10] = assay: Protection against lung fibrosis in C57BL/6 mouse model of bleomycin sulfate-induced idiopathic pulmonary fibrosis assessed as induction of improvement in histopathological changes by measuring modified Ashcroft score level at 60 mg/kg, po dosed once daily for 31 days followed by bleomycin sulfate challenge on day 3 by hematoxylin and eosin staining based assay (reference value: 6.28); type: functional
Mus musculus [11] = assay: Protection against lung fibrosis in C57BL/6 mouse model of bleomycin sulfate-induced idiopathic pulmonary fibrosis assessed as induction of improvement in lung texture at 20 to 60 mg/kg, po dosed once daily for 31 days followed by bleomycin sulfate challenge on day 3 by hematoxylin and eosin staining based assay; type: functional, organism-based
Autotaxin [12] = biological target: T1, Autotaxin
Description: Inhibition of human ATX by LPC choline release assay

Mus musculus [13] = assay: Protection against lung fibrosis in C57BL/6 mouse model of bleomycin sulfate-induced idiopathic pulmonary fibrosis assessed as induction of improvement in lung texture by measuring modified Ashcroft score level at 60 mg/kg, po dosed once daily for 31 days followed by bleomycin sulfate challenge on day 3 by Masson staining based assay; type: functional

Compound | IC50 (Autotaxin [1]) | other results
CCn1cc(C(=O)N/N=C(\C)c2ccc(F)cc2)c2cc(-c3nc(CN4CCC[C@H]4CO)cs3)ccc21 | 15.7 nM | 
CCn1cc(C(=O)N/N=C/c2ccc(F)cc2)c2cc(-c3nc(CN4CCN(CCO)CC4)cs3)ccc21 | 135 nM | 
CCn1cc(NC(=O)OCc2cc(Cl)cc(Cl)c2)c2cc(-c3nc(CN(CCO)CCO)cs3)ccc21 | 21.3 nM | 
CN1CCN(Cc2csc(-c3ccc4c(c3)c(C(=O)N/N=C/c3ccc5c(c3)OCO5)cn4C)n2)CC1 | 879 nM | 
CCN1CCN(Cc2csc(-c3ccc4c(c3)c(C(=O)N/N=C(\C)c3ccc(F)cc3)cn4CC)n2)CC1 | 1590 nM | 
CCn1cc(NC(=O)OCc2cccc(Cl)c2Cl)c2cc(-c3nc(CN4CCN(CCO)CC4)cs3)ccc21 | 62.7 nM | 
CCn1cc(C(=O)N/N=C/c2ccc(F)cc2)c2cc(-c3nc(CN4CCCCC4)cs3)ccc21 | 3960 nM | 
CCn1cc(C(=O)N/N=C/c2ccc(F)cc2)c2cc(-c3nc(CN4CCOCC4)cs3)ccc21 | 1370 nM | 
CCc1nc2c(C)cc(N3CCN(CC(=O)N4CC(O)C4)CC3)cn2c1N(C)c1nc(-c2ccc(F)cc2)c(C#N)s1 [ZIRITAXESTAT] |  | Activity (Mus musculus [2]): Active; Activity (Mus musculus [3]): 4.03 a.u.; Activity (Mus musculus [4]): Active
C/C(=N\NC(=O)c1cn(C)c2ccc(-c3nc(CN4CCN(C)CC4)cs3)cc12)c1ccc(F)cc1 | > 10000 nM | 
CCn1cc(NC(=O)O[C@H](C)c2ccccc2Cl)c2cc(-c3nc(CN4CCC(O)CC4)cs3)ccc21 | 210 nM | 
CCn1cc(C(=O)N/N=C/c2ccc3c(c2)OCO3)c2cc(-c3nc(CN4CCCCC4)cs3)ccc21 | 1550 nM | 
CCn1cc(C(=O)N/N=C/c2ccc(F)cc2)c2cc(-c3nc(CN4CCC(O)CC4)cs3)ccc21 | 906 nM | 
CCN1CCN(Cc2csc(-c3ccc4c(c3)c(C(=O)N/N=C/c3ccc(Cl)cc3)cn4CC)n2)CC1 | 2310 nM | 
CCn1cc(C(=O)N/N=C/c2ccc3c(c2)OCO3)c2cc(-c3nc(CN4CCC(O)CC4)cs3)ccc21 | 107 nM | 
CCn1cc(C(=O)N/N=C/c2ccc(Cl)cc2)c2cc(-c3nc(CN4CCC(O)CC4)cs3)ccc21 | 180 nM | 
CCn1cc(C(=O)N/N=C/c2ccc3c(c2)OCO3)c2cc(-c3nc(CN4CCOCC4)cs3)ccc21 | > 10000 nM | 
CCn1cc(C(=O)N/N=C/c2ccc3c(c2)OCO3)c2cc(-c3nc(CN4CCC(C)CC4)cs3)ccc21 | > 10000 nM | 
CN(C)Cc1csc(-c2ccc3[nH]cc(C(=O)O)c3c2)n1 | 740 nM | 
CCn1cc(NC(=O)O[C@H](C)c2ccc(C)cc2)c2cc(-c3nc(CN4CCC[C@H]4CO)cs3)ccc21 | 36.9 nM | 
CCn1cc(C(=O)N/N=C/c2ccc(F)cc2)c2cc(-c3nc(CN4CCC[C@H]4CO)cs3)ccc21 | 655 nM | 
Cn1cc(C(=O)N/N=C/c2ccc(F)cc2)c2cc(-c3nc(CN4CCOCC4)cs3)ccc21 | 2870 nM | 
CCn1cc(NC(=O)OCc2ccc(F)c(F)c2)c2cc(-c3nc(CN4CCC(O)CC4)cs3)ccc21 | 1.01 nM | Activity (Mus musculus [2]): Active; Activity (Mus musculus [5]): Active; Activity (Mus musculus [6]): 3.85 a.u.; Activity (Mus musculus [3]): 3.37 a.u.; inhibition (Mus musculus [7]): Dose-dependent effect; Activity_index (Mus musculus [8]): 4.66; Activity (Mus musculus [9]): Active; Activity_index (Mus musculus [10]): 3.2; Activity (Mus musculus [11]): Dose-dependent effect
CCn1cc(C(=O)N/N=C/c2ccc(OC)cc2)c2cc(-c3nc(CN4CCCCC4)cs3)ccc21 | 1460 nM | 
CCn1cc(NC(=O)OCc2ccc3c(c2)OCO3)c2cc(-c3nc(CN4CCC[C@H]4CO)cs3)ccc21 | 34.7 nM | 
Cn1cc(C(=O)N/N=C/c2ccc3c(c2)OCO3)c2cc(-c3nc(CN4CCOCC4)cs3)ccc21 | > 10000 nM | 

Compound | IC50 (Autotaxin [1]) | other results
CCn1cc(NC(=O)OCc2ccc(F)c(F)c2)c2cc(-c3nc(CN4CCC[C@H]4CO)cs3)ccc21 | 297 nM | 
CCn1cc(NC(=O)O[C@H](C)c2ccc(C)cc2)c2cc(-c3nc(CN4CCC(O)CC4)cs3)ccc21 | 117 nM | 
CCn1cc(NC(=O)OCc2ccc3c(c2)OCO3)c2cc(-c3nc(CN4CCC(O)CC4)cs3)ccc21 | 34.1 nM | 
CCn1cc(NC(=O)O[C@H](C)c2ccccc2Cl)c2cc(-c3nc(CN4CCC[C@H]4CO)cs3)ccc21 | 199 nM | 
CCn1cc(C(=O)N/N=C/c2ccc3c(c2)OCO3)c2cc(-c3nc(CN4CCN(CCO)CC4)cs3)ccc21 | 1320 nM | 
CCCC[C@@H](CCCC(=O)NO)NC(=O)CCCCC(=O)Nc1ccccc1 |  | IC50 (Autotaxin [12]): 60 nM
CCn1cc(NC(=O)OCc2ccccc2)c2cc(-c3nc(CN4CCC(O)CC4)cs3)ccc21 | 970 nM | 
CCn1cc(C(=O)N/N=C/c2ccc(Cl)cc2)c2cc(-c3nc(CN4CCN(CCO)CC4)cs3)ccc21 | 231 nM | 
CCn1cc(C(=O)N/N=C/c2ccc(OC)cc2)c2cc(-c3nc(CN4CCOCC4)cs3)ccc21 | > 10000 nM | 
CCn1cc(NC(=O)OCc2ccccc2)c2cc(-c3nc(CN4CCC[C@H]4CO)cs3)ccc21 | 122 nM | 
CCN1CCN(Cc2csc(-c3ccc4c(c3)c(C(=O)N/N=C/c3ccc(F)cc3)cn4CC)n2)CC1 | 1350 nM | 
CN1CCN(Cc2csc(-c3ccc4c(c3)c(C(=O)N/N=C/c3ccc(F)cc3)cn4C)n2)CC1 | 5240 nM | 
CCn1cc(C(=O)N/N=C(\C)c2ccc(F)cc2)c2cc(-c3nc(CN4CCN(C)CC4)cs3)ccc21 | 2530 nM | 
CCn1cc(C(=O)N/N=C/c2ccc3c(c2)OCO3)c2cc(-c3nc(CN4CCC[C@H]4CO)cs3)ccc21 | 610 nM | 
CCn1cc(C(=O)N/N=C(\C)c2ccc(F)cc2)c2cc(-c3nc(CN4CCN(CCO)CC4)cs3)ccc21 | 508 nM | 
CCn1cc(C(=O)N/N=C(\C)c2ccc(F)cc2)c2cc(-c3nc(CN4CCC(O)CC4)cs3)ccc21 | 69.4 nM | 
Cn1cc(C(=O)N/N=C/c2ccc(Cl)cc2)c2cc(-c3nc(CN4CCOCC4)cs3)ccc21 | > 10000 nM | 
CCn1cc(C(=O)N/N=C/c2ccc3c(c2)OCO3)c2cc(-c3nc(CN4CCN(C)CC4)cs3)ccc21 | 757 nM | 
CCn1cc(C(=O)N/N=C/c2ccc(F)cc2)c2cc(-c3nc(CN4CCC(C)CC4)cs3)ccc21 | > 10000 nM | 
CCn1cc(NC(=O)OCc2ccc3c(c2)OCO3)c2cc(-c3nc(CN(CCO)CCO)cs3)ccc21 | 30.7 nM | 
CCn1cc(NC(=O)OCc2cccc(Cl)c2Cl)c2cc(-c3nc(CN4CCC(O)CC4)cs3)ccc21 | 127 nM | 
CCn1cc(C(=O)N/N=C/c2ccc(Cl)cc2)c2cc(-c3nc(CN4CCCC4)cs3)ccc21 | 1170 nM | 
CCn1cc(C(=O)N/N=C(\C)c2ccc(F)cc2)c2cc(-c3nc(CN4CCOCC4)cs3)ccc21 | 1840 nM | 
CCn1cc(NC(=O)OCc2cc(Cl)cc(Cl)c2)c2cc(-c3nc(CN4CCC(O)CC4)cs3)ccc21 | 613 nM | 
CCn1cc(C(=O)N/N=C(\C)c2ccc(F)cc2)c2cc(-c3nc(CN4CCCC4)cs3)ccc21 | 2740 nM | 
CCn1cc(NC(=O)OCc2cc(Cl)cc(Cl)c2)c2cc(-c3nc(CN4CCN(CCO)CC4)cs3)ccc21 | 0.43 nM | Activity (Mus musculus [2]): Active; Activity (Mus musculus [5]): Active; Activity (Mus musculus [6]): 3.43 a.u.; Activity (Mus musculus [3]): 3.25 a.u.; inhibition (Mus musculus [7]): Dose-dependent effect; Activity (Mus musculus [9]): Active; Activity_index (Mus musculus [10]): 2.04; Activity_index (Mus musculus [13]): 2.01
